In patent publication US8969389B2, “Substituted 6-methylnicotinamides as mGluR5 positive allosteric modulators” (Vanderbilt University, priority 2010, dated 2015):

What follows are compounds tested against T1, rat mGluR5 (Rattus norvegicus, UniProt P31424) (assay: Potentiation of glutamate response in HEK cells transfected with rat mGluR5 (Ca2+ fluorescence, FDSS)). Conditions: (R) and (S) enantiomers, Tables 3A/3B; read-out: mGluR5 EC50.
T1 construct: expressed in transfected cells; host or cells: HEK (human embryonic kidney) cells
Type: cell-based
Description: Human embryonic kidney (HEK) cells transfected with rat mGluR5 were plated in clear bottom assay plates for assay in a Functional Drug Screening System (FDSS). In the alternative assay, HEK cells transfected with human mGluR5 (H10H cell line) were plated for assay in the FDSS. […] The cells were loaded with a Ca^2+-sensitive fluorescent dye (e.g., Fluo-4), and the plates were washed and placed in the FDSS instrument. After establishment of a fluorescence baseline for twelve seconds, the compounds of the present invention were added to the cells, and the response in cells was measured. Five minutes later, an mGluR5 agonist (e.g., glutamate, 3,5-dihydroxyphenylglycine, or quisqualate) was added to the cells, and the response of the cells was measured. Potentiation of the agonist response of mGluR5 by the compounds in the present invention was observed as an increase in response to non-maximal concentrations of agonist (here, glutamate) in the presence of compound compared to the response to agonist in the absence of compound.
The above described assay operated in two modes. In the first mode, a range of concentrations of the present compounds were added to cells, followed by a single fixed concentration of agonist. If a compound acted as a potentiator, an EC50 value for potentiation and a maximum extent of potentiation by the compound at this concentration of agonist was determined by non-linear curve fitting. In the second mode, several fixed concentrations of the present compounds were added to various wells on a plate, followed by a range of concentrations of agonist for each concentration of present compound; the EC50 values for the agonist at each concentration of compound were determined by non-linear curve fitting. A decrease in the EC50 value of the agonist with increasing concentrations of the present compounds (a leftward shift of the agonist concentration-response curve) is an indication of the degree of mGluR5 potentiation at a given concentration of the present compound. An increase in the EC50 value of the agonist with increasing concentrations of the present compounds (a rightward shift of the agonist concentration-response curve) is an indication of the degree of mGluR5 antagonism at a given concentration of the present compound. The second mode also indicates whether the present compounds also affect the maximum response to mGluR5 to agonists.

T1 sequence (P31424 21-1203): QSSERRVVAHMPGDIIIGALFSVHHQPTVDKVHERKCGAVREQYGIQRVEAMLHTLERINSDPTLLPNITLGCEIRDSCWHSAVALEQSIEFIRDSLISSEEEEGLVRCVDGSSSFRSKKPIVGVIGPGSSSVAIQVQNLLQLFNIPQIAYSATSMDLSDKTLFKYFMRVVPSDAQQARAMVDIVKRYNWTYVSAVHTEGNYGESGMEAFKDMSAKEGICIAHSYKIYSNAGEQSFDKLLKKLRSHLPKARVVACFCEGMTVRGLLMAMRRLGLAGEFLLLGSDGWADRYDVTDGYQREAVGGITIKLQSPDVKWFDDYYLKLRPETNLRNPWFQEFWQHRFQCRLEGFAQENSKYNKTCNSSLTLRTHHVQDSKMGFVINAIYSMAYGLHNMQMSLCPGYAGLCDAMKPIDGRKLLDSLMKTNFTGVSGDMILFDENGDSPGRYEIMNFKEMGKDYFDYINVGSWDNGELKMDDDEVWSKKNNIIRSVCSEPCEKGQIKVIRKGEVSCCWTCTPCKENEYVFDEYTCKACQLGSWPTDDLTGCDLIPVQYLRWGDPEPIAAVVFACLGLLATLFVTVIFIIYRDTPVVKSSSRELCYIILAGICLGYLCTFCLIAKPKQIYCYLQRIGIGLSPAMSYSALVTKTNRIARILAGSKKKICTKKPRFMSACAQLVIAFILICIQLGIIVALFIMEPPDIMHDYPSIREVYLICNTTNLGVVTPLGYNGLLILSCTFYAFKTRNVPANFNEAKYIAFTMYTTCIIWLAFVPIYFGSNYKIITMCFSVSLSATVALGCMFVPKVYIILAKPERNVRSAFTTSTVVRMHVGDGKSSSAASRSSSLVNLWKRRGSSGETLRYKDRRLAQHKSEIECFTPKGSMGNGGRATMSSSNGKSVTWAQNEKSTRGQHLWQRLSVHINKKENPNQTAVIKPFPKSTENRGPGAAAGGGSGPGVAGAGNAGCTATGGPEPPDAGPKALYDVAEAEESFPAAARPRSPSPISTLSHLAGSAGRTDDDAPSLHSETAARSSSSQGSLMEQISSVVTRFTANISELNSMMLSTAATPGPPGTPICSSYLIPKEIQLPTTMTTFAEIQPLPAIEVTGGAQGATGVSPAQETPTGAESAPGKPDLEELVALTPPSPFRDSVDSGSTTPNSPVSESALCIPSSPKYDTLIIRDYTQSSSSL

Row | SMILES | EC50 [µM]
1 | C[C@@H](NC(=O)c1ccc(COc2cccc(F)c2)nc1)C(C)(C)C [Example 13a, (R)-N-(3,3-dimethylbutan-2-yl)-6-((3-fluorophenoxy)methyl)nicotinamide] | 0.081
2 | C[C@H](NC(=O)c1ccc(COc2cccc(F)c2)nc1)C(C)(C)C [Example 13b, (S)-N-(3,3-dimethylbutan-2-yl)-6-((3-fluorophenoxy)methyl)nicotinamide] | > 10
3 | C[C@@H](NC(=O)c1ccc(COc2cccc(F)c2)nc1)C1CCCCC1 [Example 11a, (R)-N-(1-cyclohexylethyl)-6-((3-fluorophenoxy)methyl)nicotinamide] | 0.13
4 | C[C@@H](NC(=O)c1ccc(COc2cc(F)cc(F)c2)nc1)C1CCCCC1 [Example 12a, (R)-N-(1-cyclohexylethyl)-6-((3,5-difluorophenoxy)methyl)nicotinamide] | 0.309
5 | C[C@H](NC(=O)c1ccc(COc2cc(F)cc(F)c2)nc1)C1CCCCC1 [Example 12b, (S)-N-(1-cyclohexylethyl)-6-((3,5-difluorophenoxy)methyl)nicotinamide] | > 10
6 | C[C@H](NC(=O)c1ccc(COc2cccc(F)c2)nc1)C1CCCCC1 [Example 11b, (S)-N-(1-cyclohexylethyl)-6-((3-fluorophenoxy)methyl)nicotinamide] | > 10

Same assay, conditions: HEK cells transfected with rat mGluR5; read-out: rmGlu5 PAM EC50

Row | SMILES | EC50 [µM]
7 | CC(C)NC(=O)c1ccc(COc2cc(F)cc(C#N)c2)nc1 | > 10
8 | C[C@@H](NC(=O)c1ccc(COc2cccc(Cl)c2)nc1)C1CCCCC1 | 0.21
9 | COCC(C)NC(=O)c1ccc(COc2cccc(F)c2)nc1 (stereo not drawn) | > 10
10 | C[C@@H](NC(=O)c1ccc(COc2cc(F)cc(F)c2)nc1)C1CCCCC1 [drawing 81] | 0.309
11 | O=C(Nc1cccc(Cl)c1)c1ccc(COc2ccccc2)nc1 | > 10
12 | O=C(NCCc1ccccn1)c1ccc(COc2ccccc2)nc1 | > 10
13 | O=C(NC1CCc2ccccc21)c1ccc(COc2ccccc2)nc1 (stereo not drawn) [drawing 113] | > 10
14 | O=C(NC1CCCCC1)c1ccc(COc2cc(F)cc(F)c2)nc1 | > 10
15 | O=C(Nc1ccccc1F)c1ccc(COc2ccccc2)nc1 | 0.501
16 | C[C@@H](NC(=O)c1ccc(COc2ccccc2)nc1)C1CCCCC1 [drawing 78] | 0.257
17 | COc1ccccc1OCc1ccc(C(=O)N[C@H](C)C2CCCCC2)cn1 | 3.4
18 | O=C(NC12CC3CC(CC(C3)C1)C2)c1ccc(COc2ccccc2)nc1 | 0.603
19 | O=C(Nc1ccncc1)c1ccc(COc2ccccc2)nc1 | > 10
20 | CC1(C)CC(CNC(=O)c2ccc(COc3cccc(F)c3)nc2)CCO1 (stereo not drawn) | > 10
21 | O=C(NCCN1CCCCC1)c1ccc(COc2ccccc2)nc1 | > 10
22 | O=C(NCc1ccccn1)c1ccc(COc2ccccc2)nc1 | > 10
23 | C[C@@H](NC(=O)c1ccc(COc2ccc(F)cc2)nc1)C1CCCCC1 | 0.36
24 | O=C(NC(C1CC1)C1CC1)c1ccc(COc2cccc(F)c2)nc1 | 1.26
25 | O=C(Nc1cccc(F)c1)c1ccc(COc2ccccc2)nc1 | > 10
26 | O=C(NC1CC2CCC1C2)c1ccc(COc2ccccc2)nc1 (stereo not drawn) [drawing 70] | 0.151
27 | C[C@@H](NC(=O)c1ccc(COc2cccc(F)c2)nc1)C1CCCCC1 [drawing 73] | 0.17
28 | CN(C)CCCNC(=O)c1ccc(COc2ccccc2)nc1 | > 10
29 | C[C@@H](NC(=O)c1ccc(COc2cccc(F)c2)nc1)C1CCCCC1 [drawing 67] | 0.13

Row | SMILES | EC50 [µM]
30 | C[C@@H](NC(=O)c1ccc(COc2ccccn2)nc1)C1CCCCC1 | > 10
31 | N#Cc1cc(F)cc(OCc2ccc(C(=O)NC3(c4ccccc4)CCC3)cn2)c1 | > 10
32 | C[C@H](NC(=O)c1ccc(COc2ccccc2)nc1)C1CCCCC1 | 2.88
33 | O=C(NC1CC2CCC1C2)c1ccc(COc2ccccc2)nc1 (stereo not drawn) [drawing 66] | 0.12
34 | O=C(Nc1nccs1)c1ccc(COc2ccccc2)nc1 | 1.2
35 | CC(C)(C)CCNC(=O)c1ccc(COc2cccc(F)c2)nc1 | 0.302
36 | C[C@@H](NC(=O)c1ccc(COc2ccc(C#N)cc2)nc1)C1CCCCC1 | 2.5
37 | O=C(Nc1cccc(C(F)(F)F)c1)c1ccc(COc2ccccc2)nc1 | > 10
38 | CC(C)(C)CCNC(=O)c1ccc(COc2cc(F)cc(F)c2)nc1 | 1.58
39 | O=C(NC1CCC1)c1ccc(COc2cccc(F)c2)nc1 | 3.47
40 | C[C@@H](NC(=O)c1ccc(COc2cc(F)cc(C#N)c2)nc1)C1CCCCC1 | > 10
41 | COCCCNC(=O)c1ccc(COc2ccccc2)nc1 | > 10
42 | O=C(NC1CCC1)c1ccc(COc2cc(F)cc(F)c2)nc1 | 3.39
43 | N#Cc1cc(F)cc(OCc2ccc(C(=O)NC3CCC3)cn2)c1 | > 10
44 | CC(NC(=O)c1ccc(COc2ccccc2)nc1)C1CCCCC1 (stereo not drawn) | 0.188
45 | O=C(Nc1ncccc1F)c1ccc(COc2ccccc2)nc1 | > 10
46 | O=C(NC1CC2CCC1C2)c1ccc(COc2cccc(F)c2)nc1 (stereo not drawn) | 0.0759
47 | O=C(NC(C1CC1)C(F)(F)F)c1ccc(COc2cccc(F)c2)nc1 (stereo not drawn) | 1.9
48 | O=C(NCCN1CCOCC1)c1ccc(COc2ccccc2)nc1 | > 10
49 | C[C@@H](NC(=O)c1ccc(COc2ccncc2)nc1)C1CCCCC1 | 2.6
50 | O=C(NC1CCC1)c1ccc(COc2ccccc2)nc1 | 4.68
51 | C[C@H](NC(=O)c1ccc(COc2cc(F)cc(F)c2)nc1)C1CCCCC1 [drawing 149] | > 10
52 | O=C(NCCc1ccc(Cl)cc1)c1ccc(COc2ccccc2)nc1 | > 10

Row | SMILES | EC50 [µM]
53 | C[C@@H](NC(=O)c1ccc(COc2cccc(F)c2)nc1)C1CCC1 | 0.138
54 | O=C(Nc1ccc(Cl)cc1)c1ccc(COc2ccccc2)nc1 | > 10
55 | CC(C)NC(=O)c1ccc(COc2cc(F)cc(F)c2)nc1 | > 10
56 | CC(C)CNC(=O)c1ccc(COc2ccccc2)nc1 | 1.7
57 | C[C@@H](NC(=O)c1ccc(COc2cccnc2)nc1)C1CCCCC1 [drawing 107] | 4.5
58 | O=C(Nc1ccc(F)cc1F)c1ccc(COc2ccccc2)nc1 | 0.501
59 | C[C@@H](NC(=O)c1ccc(COc2cccc(F)c2)nc1)C1CCOCC1 | 3.24
60 | O=C(Nc1ccc(F)cn1)c1ccc(COc2ccccc2)nc1 | 1.51
61 | CC[C@@H](C)NC(=O)c1ccc(COc2cccc(F)c2)nc1 | 3.31
62 | O=C(NCCCN1CCOCC1)c1ccc(COc2ccccc2)nc1 | > 10
63 | O=C(Nc1ccc(Cl)cc1F)c1ccc(COc2ccccc2)nc1 | > 10
64 | C[C@@H](NC(=O)c1ccc(COc2ccccc2C#N)nc1)C1CCCCC1 | > 10
65 | O=C(Nc1cc(F)cc(F)c1)c1ccc(COc2ccccc2)nc1 | > 10
66 | O=C(Nc1cccc(F)c1F)c1ccc(COc2ccccc2)nc1 | > 10
67 | O=C(NC1C2CC3CC(C2)CC1C3)c1ccc(COc2ccccc2)nc1 (stereo not drawn) | 0.288
68 | C[C@@H](NC(=O)c1ccc(COc2cccc(F)c2)nc1)C1CCCCC1 [drawing 74] | 0.172
69 | CC(C)[C@@H](C)NC(=O)c1ccc(COc2cccc(F)c2)nc1 | 0.158
70 | C[C@H](NC(=O)c1ccc(COc2cc(F)cc(C#N)c2)nc1)C1CCCCC1 | > 10
71 | O=C(Nc1ccc(Cl)cn1)c1ccc(COc2ccccc2)nc1 | > 10
72 | O=C(Nc1nccs1)c1ccc(COc2cc(F)cc(F)c2)nc1 | > 10
73 | O=C(NC1(c2ccccc2)CCC1)c1ccc(COc2cccc(F)c2)nc1 | 0.912
74 | CC(C)(C)CCNC(=O)c1ccc(COc2cc(F)cc(C#N)c2)nc1 | > 10

Same assay, conditions: S configuration enantiomer; read-out: mGluR5 potentiator EC50

Row | SMILES | EC50 [µM]
75 | C[C@H](NC(=O)c1ccc(COc2cccc(F)c2)nc1)C1CCCCC1 [Example 11b, (S)-N-(1-cyclohexylethyl)-6-((3-fluorophenoxy)methyl)nicotinamide] | > 10
